Measured values reported in patent publication US20110003393A1, “SYSTEMS AND METHODS FOR STUDYING INFLUENZA” (President and Fellows of Harvard College, priority 2007, published 2011).

Tests used:
[1] = target: T1, M2 proton channel of the influenza A virus (Influenza A virus, UniProt P0DOF5, C19S/C50S); assay type: binding, influenza A virus (A/Udorn); details: pH 7.5, 40 mM rimantadine, 0.75 mM M2(18-60) monomer, 300 mM DHPC, four NOESY spectra
[2] = target: T1, M2 proton channel of the influenza A virus; assay type: binding, influenza A virus (A/Udorn)

Compound: CC(N)C12CC3CC(CC(C3)C1)C2 (stereo not drawn) [rimantadine]
- location of binding site from protein-rimantadine NOEs [1]: between adjacent helices at the C-terminal end of the TM domain near the Trp41 gate, on the membrane side of the channel
- affinity for the open state of the channel ([2]; pH 6): much lower affinity, if any, for the open state
- effect of binding on channel conformation ([2]; pH 7): stabilizes the closed conformation
